Test results: US20240189305A1, “THERAPEUTIC AGENT FOR CORONAVIRUS INFECTION” (FUJIFILM TOYAMA CHEMICAL CO., LTD., priority 2021, published 2024)

Tested on: SARS-CoV-2
Assay: Test example 1: placebo-controlled, stratified-randomized, multicenter, double-blind phase 3 study in COVID-19 patients with a risk factor for disease progression at an early stage after onset
Assay type: in vivo
Details: patients 50 years or older, onset within 72 hours; oral 1,800 mg twice/day for 1 day + 800 mg twice/day for 9 days

NC(=O)c1nc(F)cnc1O [Compound A, 6-fluoro-3-hydroxy-2-pyrazinecarboxamide]
therapeutic effect by primary endpoint (proportion of patients with disease progression up to Day 28) and/or secondary endpoints versus placebo: therapeutic effect is higher in the Compound A group than in the placebo group
